Columns and labels:
[1] = test system: JAK1/3 signaling to STAT6 in Ramos B cells; assay: IL4 stimulation of JAK1/3 signaling to STAT6 in Ramos B cells (pSTAT6 Y641, FACS); format: cell-based; conditions: Homo sapiens; for inhibition at 0.2 µM: 0.2 uM compound, read-out: IL-4/STAT6 in Ramos Percent Inhibition at 0.2 uM; for inhibition at 1 µM: 1.0 uM compound, read-out: IL-4/STAT6 in Ramos Percent Inhibition at 1.0 uM
Protocol: IL4 stimulation of JAK1/3 signaling to STATE in Ramos B cells:
As an alternative strategy to measure effect of JAK3 inhibitors on JAK1/3 dependent cytokine signaling pathways, IL4 stimulation of the Ramos Burkett's B cell line is used. IL4 engages a receptor consisting of the IL4 receptor alpha chain and the common gamma chain. […] Ramos B cells are suspended in tissue culture media containing 10% fetal calf serum at 10×10̂6 cells/ml. 100 μl aliquots are pre-treated for 1 hour with various concentrations of compound, and then stimulated for 15 minutes with 15 ng IL4. The signaling reaction is terminated by fixing in 2% paraformaldehyde for 10 minutes at room temperature. Fixed cells are then washed and permeablized by suspension in 100% methanol at −80° C. Following overnight incubation at 4° C., cells are washed and resuspended in PBS containing 0.5% bovine serum albumin containing pSTAT6 Y641-PE conjugated antibody. After 1 hour incubation, cells are washed and the extent of STAT6 phosphorlyation in Ramos cells is measured by FACS analysis.

[2] = biological target: T1, JAK1 (Homo sapiens, UniProt P23458); assay: Z'-LYTE kinase assay JAK1; format: biochemical
T1 construct: 5 μl of catalytic domain recombinant Kinase enzyme+Tyr peptide substrate (Invitrogen, CA); purchased Invitrogen
How it was run: (§1)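 Z′-LYTE FRET, Tyr6 peptide, recombinant catalytic domain + ATP, 1 h RT, 1% DMSO final, duplicates; protease development 1 h RT; fluorescence read.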

[3] = biological target: T2, JAK2 (Homo sapiens, UniProt O60674); assay: Z'-LYTE kinase assay JAK2; format: biochemical
T2 construct: 5 μl of catalytic domain recombinant Kinase enzyme+Tyr peptide substrate (Invitrogen, CA); purchased Invitrogen
How it was run: as §1

[4] = biological target: T3, JAK3 (Homo sapiens, UniProt P52333); assay: Z'-LYTE kinase assay JAK3; format: biochemical
T3 construct: 5 μl of catalytic domain recombinant Kinase enzyme+Tyr peptide substrate (Invitrogen, CA); purchased Invitrogen
How it was run: as §1

T2 sequence (O60674 849-1124 limits assumed): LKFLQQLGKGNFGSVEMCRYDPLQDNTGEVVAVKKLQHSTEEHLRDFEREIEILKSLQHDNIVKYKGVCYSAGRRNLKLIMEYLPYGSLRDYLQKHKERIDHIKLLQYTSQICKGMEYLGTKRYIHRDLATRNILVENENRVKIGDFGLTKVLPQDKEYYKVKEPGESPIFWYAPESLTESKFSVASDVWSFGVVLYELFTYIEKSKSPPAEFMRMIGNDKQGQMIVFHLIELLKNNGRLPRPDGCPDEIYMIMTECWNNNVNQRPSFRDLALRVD
T3 sequence (P52333 822-1111 limits assumed): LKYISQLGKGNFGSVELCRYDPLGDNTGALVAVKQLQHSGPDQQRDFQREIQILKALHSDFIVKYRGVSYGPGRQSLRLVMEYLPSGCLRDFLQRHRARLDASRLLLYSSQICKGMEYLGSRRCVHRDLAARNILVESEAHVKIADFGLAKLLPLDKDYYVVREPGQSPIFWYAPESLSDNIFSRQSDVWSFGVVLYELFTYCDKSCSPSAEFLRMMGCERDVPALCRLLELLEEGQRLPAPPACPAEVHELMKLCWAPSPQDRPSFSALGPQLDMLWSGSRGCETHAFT
T1 sequence (P23458 875-1153 limits assumed): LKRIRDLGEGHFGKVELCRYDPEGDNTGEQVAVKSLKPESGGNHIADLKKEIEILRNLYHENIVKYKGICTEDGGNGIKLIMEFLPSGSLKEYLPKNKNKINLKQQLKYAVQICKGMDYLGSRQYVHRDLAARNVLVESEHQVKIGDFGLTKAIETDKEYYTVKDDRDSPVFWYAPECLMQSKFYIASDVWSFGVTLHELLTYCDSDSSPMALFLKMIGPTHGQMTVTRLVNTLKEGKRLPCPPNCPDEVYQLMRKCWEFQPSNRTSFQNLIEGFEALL

Row | Compound | IC50 [2] | IC50 [3] | IC50 [4] | inhibition at 0.2 µM [1] | inhibition at 1 µM [1]
1 | NC(=O)c1cnc(Nc2cccc(N3CCCCC3)c2)cc1NCc1cccc(F)c1 [Example 68, 4-(3-fluorobenzylamino)-6-(3-(piperidin-1-yl)phenylamino)nicotinamide] | > 1000 nM | 100 to 1000 nM | 10 to 100 nM | – | 7%
2 | COc1ccc(Nc2cc(NCc3cc(F)ccc3F)c(C(N)=O)cn2)cc1 [Example 83, 4-(2,5-difluorobenzylamino)-6-(4-methoxyphenylamino)nicotinamide] | 100 to 1000 nM | 100 to 1000 nM | 10 to 100 nM | 10% | 23%
3 | NC(=O)c1cnc(Nc2cccc(OCCN3CCOCC3)c2)cc1NC(CO)c1ccccc1 (stereo not shown) [Example 230] | – | – | – | 21% | 36%
4 | NC(=O)c1cnc(Nc2cccc(NC(=O)N3CCOCC3)c2)cc1NCc1cccnc1 [Example 232] | – | – | – | 4% | 5%
5 | CC(=O)N1CCN(c2ccc(Nc3cc(NC(CO)c4ccccc4)c(C(N)=O)cn3)cc2)CC1 (stereo not shown) [Example 231] | – | – | – | 13% | 16%
6 | NC(=O)c1cnc(Nc2ccc(OCCN3CCCC3)cc2)cc1NC1(c2ccccc2)CC1 [Example 132, 4-(1-phenylcyclopropylamino)-6-(4-(2-(pyrrolidin-1-yl)ethoxy)phenylamino)nicotinamide] | > 1000 nM | 100 to 1000 nM | 10 to 100 nM | – | –
7 | NC(=O)c1cnc(Nc2ccc(C3CCOCC3)cc2)cc1NCc1cn(CCN2CCCCC2)nn1 [Example 201, 4-((1-(2-(piperidin-1-yl)ethyl)-1H-1,2,3-triazol-4-yl)methylamino)-6-(4-(tetrahydro-2H-pyran-4-yl)phenylamino)nicotinamide] | > 1000 nM | > 1000 nM | > 1000 nM | – | –
8 | CS(=O)(=O)NCc1ccc(Nc2cc(NCc3cccc4ccsc34)c(C(N)=O)cn2)cc1 [Example 353, 4-(benzo[b]thiophen-7-ylmethylamino)-6-(4-(methylsulfonamidomethyl)phenylamino)nicotinamide] | 100 to 1000 nM | 10 to 100 nM | 1 to 10 nM | – | –
9 | NC(=O)c1cnc(Nc2ccc(-c3nc[nH]n3)cc2)cc1NCc1ccccc1 [Example 281, 6-(4-(1H-1,2,4-triazol-3-yl)phenylamino)-4-(benzylamino)nicotinamide] | 100 to 1000 nM | 100 to 1000 nM | 10 to 100 nM | – | –
10 | N#CCc1cccc(Nc2cc(NCc3ccccc3)c(C(N)=O)cn2)c1 [Example 387] | 100 to 1000 nM | 100 to 1000 nM | 1 to 10 nM | – | –
11 | CC(=O)N1CCN(c2ccc(Nc3cc(NCc4ccc(F)cc4F)c(C(N)=O)cn3)cc2)CC1 [Example 259, 6-(4-(4-acetylpiperazin-1-yl)phenylamino)-4-(2,4-difluorobenzylamino)nicotinamide] | > 1000 nM | 100 to 1000 nM | 10 to 100 nM | – | –
12 | CCC(=O)N(C)c1ccc(Nc2cc(NCc3cccc(F)n3)c(C(N)=O)cn2)cc1 [Example 488, 4-((6-fluoropyridin-2-yl)methylamino)-6-(4-(N-methylpropionamido)phenylamino)nicotinamide] | 100 to 1000 nM | 100 to 1000 nM | 10 to 100 nM | – | –
13 | Cc1ccc(Nc2cc(NCc3cncc(F)c3)c(C(N)=O)cn2)cc1 [Example 311, 4-((5-fluoropyridin-3-yl)methylamino)-6-(p-tolylamino)nicotinamide] | 100 to 1000 nM | 100 to 1000 nM | 10 to 100 nM | – | –
14 | NC(=O)c1cnc(Nc2ccc(C3CCNCC3)cc2)cc1NCc1cc(F)ccc1F [Example 214, 4-(2,5-difluorobenzylamino)-6-(4-(piperidin-4-yl)phenylamino)nicotinamide] | 10 to 100 nM | 10 to 100 nM | 1 to 10 nM | – | –
15 | CCC(=O)N1CC(c2ccc(Nc3cc(NCc4ccccc4)c(C(N)=O)cn3)cc2)C1 [Example 326, 4-(benzylamino)-6-(4-(1-propionylazetidin-3-yl)phenylamino)nicotinamide] | 100 to 1000 nM | 100 to 1000 nM | 1 to 10 nM | – | –
16 | CC(=O)N(C)c1ccc(Nc2cc(NCc3cncc(F)c3)c(C(N)=O)cn2)cc1 [Example 483, 4-((5-fluoropyridin-3-yl)methylamino)-6-(4-(N-methylacetamido)phenylamino)nicotinamide] | > 1000 nM | 100 to 1000 nM | 10 to 100 nM | – | –
17 | COC(=O)N(C)c1ccc(Nc2cc(NCc3cncc(F)c3)c(C(N)=O)cn2)cc1 [Example 479] | 100 to 1000 nM | 100 to 1000 nM | 10 to 100 nM | – | –
18 | N#Cc1cccc(Nc2cc(NCc3ccccc3)c(C(N)=O)cn2)c1 [Example 391] | > 1000 nM | > 1000 nM | 10 to 100 nM | – | –
19 | NC(=O)c1cnc(Nc2ccc(S(=O)(=O)N3CCC3)cc2)cc1NCc1ccccc1 [Example 47, 6-(4-(azetidin-1-ylsulfonyl)phenylamino)-4-(benzylamino)nicotinamide] | > 1000 nM | > 1000 nM | 100 to 1000 nM | – | –

Continued, in another order:

Row | IC50 [2] | IC50 [3] | IC50 [4] | Compound | inhibition at 0.2 µM [1] | inhibition at 1 µM [1]
20 | 100 to 1000 nM | 10 to 100 nM | 1 to 10 nM | CC(C)N1CCC(c2ccc(Nc3cc(NCc4ccccc4F)c(C(N)=O)cn3)cc2)CC1 [Example 108, 4-(2-fluorobenzylamino)-6-(4-(1-isopropylpiperidin-4-yl)phenylamino)nicotinamide] | 14% | 37%
21 | 10 to 100 nM | 10 to 100 nM | 1 to 10 nM | NC(=O)c1cnc(Nc2ccc(C(=O)N3CCC3)cc2)cc1NCc1cc(F)ccc1F [Example 93, 6-(4-(azetidine-1-carbonyl)phenylamino)-4-(2,5-difluorobenzylamino)nicotinamide] | 43% | 76%
22 | 100 to 1000 nM | 100 to 1000 nM | 10 to 100 nM | NC(=O)c1cnc(Nc2ccc(-c3c[nH]cn3)cc2)cc1NCc1ccccc1 [Example 276, 6-(4-(1H-imidazol-4-yl)phenylamino)-4-(benzylamino)nicotinamide] | – | –
23 | 100 to 1000 nM | 10 to 100 nM | < 1 nM | Cc1cc(Nc2cc(NCc3cccc(F)c3F)c(C(N)=O)cn2)ccc1C(=O)N1CCC1 [Example 454, 6-(4-(azetidine-1-carbonyl)-3-methylphenylamino)-4-(2,3-difluorobenzylamino)nicotinamide] | – | –
24 | > 1000 nM | 100 to 1000 nM | 100 to 1000 nM | CCC(=O)N1CCC(c2ccc(Nc3cc(NCc4ccc(F)c(F)c4)c(C(N)=O)cn3)cc2)CC1 [Example 148, 4-(3,4-difluorobenzylamino)-6-(4-(1-propionylpiperidin-4-yl)phenylamino)nicotinamide] | – | –
25 | 100 to 1000 nM | 100 to 1000 nM | 1 to 10 nM | NC(=O)c1cnc(Nc2ccc(C3CN(C(=O)N4CCCC4)C3)cc2)cc1NCc1ccccc1 [Example 338, 4-(benzylamino)-6-(4-(1-(pyrrolidine-1-carbonyl)azetidin-3-yl)phenylamino)nicotinamide] | – | –
26 | > 1000 nM | > 1000 nM | 10 to 100 nM | NC(=O)c1cnc(Nc2cccc(OCC(=O)N3CCOCC3)c2)cc1NC1(c2ccccc2)CC1 [Example 134, 6-(3-(2-morpholino-2-oxoethoxy)phenylamino)-4-(1-phenylcyclopropylamino)nicotinamide] | – | –
27 | > 1000 nM | > 1000 nM | 100 to 1000 nM | NC(=O)c1cnc(Nc2ccc(C(F)(F)F)cc2)cc1NCc1cncc(F)c1 [Example 305] | – | –
28 | 100 to 1000 nM | 10 to 100 nM | 1 to 10 nM | COCC(=O)N1CC(c2ccc(Nc3cc(NCc4cccc5ccsc45)c(C(N)=O)cn3)cc2)C1 [Example 495, 4-(benzo[b]thiophen-7-ylmethylamino)-6-(4-(1-(2-methoxyacetyl)azetidin-3-yl)phenylamino)nicotinamide] | – | –
29 | > 1000 nM | 100 to 1000 nM | 10 to 100 nM | CN(C)C(=O)c1ccc(Nc2cc(NCc3cccc(-n4cccn4)c3)c(C(N)=O)cn2)cc1 [Example 422, 4-(3-(1H-pyrazol-1-yl)benzylamino)-6-(4-(dimethylcarbamoyl)phenylamino)nicotinamide] | – | –
30 | 100 to 1000 nM | 100 to 1000 nM | 1 to 10 nM | CN(C)C(=O)c1ccc(Nc2cc(NCc3cccc(F)n3)c(C(N)=O)cn2)cc1 [Example 316, 6-(4-(dimethylcarbamoyl)phenylamino)-4-((6-fluoropyridin-2-yl)methylamino)nicotinamide] | – | –
31 | 100 to 1000 nM | 10 to 100 nM | 1 to 10 nM | CN(C)C(=O)C1CCN(c2ccc(Nc3cc(NCc4ccccc4)c(C(N)=O)cn3)cc2)CC1 [Example 343, 4-(benzylamino)-6-(4-(4-(dimethylcarbamoyl)piperidin-1-yl)phenylamino)nicotinamide] | – | –
32 | 100 to 1000 nM | 100 to 1000 nM | 10 to 100 nM | NC(=O)c1cnc(Nc2ccc(F)c(C(=O)N3CCC3)c2)cc1NCc1ccccc1 [Example 439, 6-(3-(azetidine-1-carbonyl)-4-fluorophenylamino)-4-(benzylamino)nicotinamide] | – | –

From US20150353495A1 (PORTOLA PHARMACEUTICALS, INC., priority 2010, published 2015)
